Laboratory results taken from patent publication EP2905621B1, “MEANS AND METHODS FOR DIAGNOSING AND TREATING CDG CAUSED BY A DEFICIENCY OF PGM1” (Westfälische Wilhelms-Universität Münster, priority 2014, dated 2015).

Experiments:
transferrin = assay: Dietary supplementation in patients: transferrin glycosylation; assay type: in vivo, human; settings: for transferrin glycosylation by mass spectrometry: six patients, 0.5 to 1.0 g per kilogram per day, within 2 weeks
Protocol: (§1) Analysis of transferrin glycosylation was performed on serum samples with the use of isoelectric focusing, (3,4) sodium dodecyl sulfate-polyacrylamide-gel electrophoresis (SDS-PAGE), (3) or liquid chromatography-mass spectrometry (9) (Fig. 3, and the Examples II). […] Green fluorescent protein engineered for retention in the endoplasmic reticulum was modified to contain an N-glycosylation site that, when glycosylated, causes loss of fluorescence (Glyc-ER-GFP). (11) Glyc-ER-GFP was transfected into patient fibroblasts in culture, and fluorescence was measured by means of quantitative microscopy (see the Examples II).
(§2) Galactose powder was supplied by Falcento. Galactose levels in whole blood were determined in a healthy volunteer after the oral consumption of 250 ml of water in which 0.3 g of galactose per kilogram of body weight had been dissolved. Measurements of galactose levels in blood were made by means of spectrophotometry at intervals of 10 minutes during the first hour and at intervals of 30 minutes for an additional 3 hours. Lactose or galactose supplementation was administered as an aqueous solution at a dose of 0.5 to 1.0 g per kilogram per day, divided into three to six daily doses (on the basis of patient preference).
For high-resolution mass spectrometry of transferrin (Fig. 3), a 5 µl serum sample was incubated with anti-transferrin beads as described.^8 The eluate was analyzed on a microfluidic 6540 LC-chip-QTOF instrument (Agilent Technologies) using a C8 protein chip. Data analysis was performed using Agilent Mass Hunter Qualitative Analysis Software B.04.00. The Agilent BioConfirm Software was used to deconvolute the charge distribution of raw data to reconstructed mass data. For confirmation of the structural annotations, samples were processed for analysis of tryptic transferrin peptides by MALDI-TOF as described^9 (results not shown).

total serum N-glycome = assay: Dietary supplementation in patients: total serum N-glycome by capillary electrophoresis; assay type: in vivo, human; settings: patients with galactose supplementation
Text: • Figure 1. Glycoprotein Biosynthesis and Congenital Disorders of Glycosylation. For the N-glycosylation of proteins, a glycan precursor is assembled from monosaccharide units on an anchoring isoprenoid alcohol, dolichol, in the membrane of the endoplasmic reticulum. Each glycan precursor is then transferred en bloc to a specific asparagine residue in the nascent peptide chain of a protein being synthesized by a ribosome and entering the endoplasmic reticulum. Because transferrin (brown line) is abundant in blood, it is used as an indicator of the efficiency of the glycosylation system. Transferrin has two glycosylation sites. The protein is transported to the Golgi apparatus, and the glycans are modified in multiple steps. Each fully modified glycan is terminated with two negatively charged sialic acid residues. Thus, the transferrin molecule carries a total of four sialic acid residues. If a genetic defect impairs synthesis of the precursor glycan in the endoplasmic reticulum, one or both glycosylation sites of transferrin may remain unoccupied (white arrow). Such defects are classified as congenital disorders of glycosylation type I (CDG-I). […] CDG-I defects are easily identified owing to the occurrence of transferrin isoforms with two or no sialic acid residues detected by means of IEF. […]

[1] = Dietary supplementation in patients: hormones and clinical course; assay type: in vivo, human; settings: for levels of luteinizing hormone, increased by a factor of: initially 2.5th percentile
Protocol: as §2

skin fibroblasts = assay: Evaluation of glycogen by electron microscopy in fibroblasts; assay type: cell-based, human; settings: 5.5 mM sugar in medium, 50 h
Protocol: For electron microscopy, skin fibroblasts of patients and controls were cultured to a confluence of 50 to 70% in M199 medium (Life Technologies) supplemented with 10% fetal calf serum and 1% penicillin/streptomycin in a humidified atmosphere containing 5% CO2 at 37°C. Cells were switched to a medium consisting of DMEM supplemented with 4mM L-glutamine (Invitrogen), 10% dialyzed FCS (Gibco), 1mM uridine (Calbiochem), and either 5.5 mM D-glucose (Sigma), or 5.5 mM D-Galactose (Merck). After 50 h of incubation, cells were centrifuged for 10 min at 1000rpm and fixed by gentle addition of 2% glutaraldehyde buffered with 0.1 M sodium cacodylate pH7.4 after removing the medium. After at least 4h fixation, the pellets were very carefully taken off and post-fixed in 1% osmium tetroxide in Palade buffer pH 7.4 with 1% potassium hexacyanoferrate(III)-trihydrate, and after dehydration in ethanol and propylene oxide, embedded in Epon for electron microscopy. Semithin 1µm thick transverse sections were stained with 1% Toluidine Blue. Ultrathin sections were stained with uranyl acetate and lead citrate and examined on a JEOL 1200 EX\II. […] Cells with small darkly staining aggregates of glycogen were counted as positive. Fibroblasts were prepared for evaluation of glycogen by electron microscopy as described above. The presence of glycogen in control and patient fibroblasts cultured in the presence of either glucose or galactose was assessed by electron microscopy. Cells (of 115-160 total) with small darkly staining aggregates of glycogen were counted as positive. Aggregates are typically more common in glycogen storage diseases (picture for hepatocytes s. Fig. 7, panel C, D).

[2] = tested on: PGM1-deficient fibroblasts; assay: Assay for cellular glycosylation efficiency using modified GFP (Glyc-ER-GFP); assay type: cell-based, human; settings: fibroblasts from patients, galactose alone added to culture medium
Protocol: as §1
Glycosylation efficiency was measured using Glyc-ER-GFP constructs as described.^11 In brief, cells were seeded in a 96 wells-plate at 40% confluence. 24h later, they were incubated in medium without or with addition of supplements (e.g. 0-1 mM galactose +/-100µM uridine) for 2 days with medium replacement every day. Cells were then transfected by the Glyc-ER-GFP and maintained in the same culture media for two more days. Cells were fixed using 4% paraformaldehyde/4% sucrose and stained by Hoechst 33342 (Thermo scientific). Plates were analyzed using a high-content microscope, IN Cell 1000 (GE Healthcare), and data were analyzed with the CytoSeer software (Vala Sciences) using a protein mask.

[3] = Determination of galactose kinetics in whole blood after oral galactose; assay type: in vivo, human; settings: healthy volunteer, oral 0.3 g of galactose per kilogram of body weight in 250 ml water
Protocol: as §2
Enzymatic determination of galactose levels in whole blood was performed using exogenous galactose dehydrogenase (galactose + NAD^+ → galactono-1,4-lactone + NADH + H^+). Galactose levels were determined in a healthy control after oral consumption of 0.3 g galactose (falcento AG, Kreuzlingen, Switzerland) per kilogram body weight dissolved in 250 ml water. Measurements of galactose levels were made at intervals of 10 minutes during the first hour and at intervals of 30 minutes for additional three hours.
3000 µl of galactose buffer reagent (Instruchemie, Delfzijl, Netherlands), 100 µl of galactose NAD reagent (Instruchemie) and 200 µl of a diluted calibrator (Instruchemie) were mixed and the absorbance against distilled water was read at a temperature of 25 °C and a wavelength of 340 nm (optical density 1).
500 µl of each whole blood sample were added to 1000 µl perchloric acid (0.33 mol/l) for deproteinization and then centrifuged. 200 µl of the supernatant were added to 3000 µl galactose buffer reagent, 100 µl galactose NAD reagent and absorbance was read (optical density 1). After supplementation of 20 µl galactose start reagent and incubation at 25 °C for 15 min, the optical density 2 was measured in both, the calibrator and blood samples.
For manual calculation of the galactose concentration the following formula was used: galactose(mmol/l) = (ΔO.D.controlorsample)/(ΔO.D.calibrator) × concentrationofcalibrator [formula]

[4] = Patients 2 and 6, after initiation of galactose treatment

## O=C[C@H](O)[C@@H](O)[C@@H](O)[C@H](O)CO [galactose]
transferrin; Patient 1.1, daily 0.5 g per kg b.w. in 3 portions, doubled after one week, HPLC, within a few weeks, 50 before
  tetrasialo-transferrin: 70%
transferrin
  transferrin glycosylation by mass spectrometry: improved substantially
Total serum N-glycome
  glycosylation of the total serum N-glycome: substantial improvement
[1]; Patient 2, after initiation of galactose supplementation
  levels of luteinizing hormone, increased by a factor of: 5
[1]; Patient 6, after initiation of galactose supplementation
  levels of luteinizing hormone, increased by a factor of: 10
[1]; Patients 2 and 6, after initiation of galactose supplementation
  hypogonadotropic hypogonadism: resolved within a few weeks
[1]; [4]
  cardiac function: remained stable
  episodes of rhabdomyolysis: no further episodes
[1]; Patients 2 and 6, every 3 months during galactose supplementation
  ultrasonography of the liver: no increase in echogenicity and no signs of cholestasis
[1]; Patients 2 and 6, galactose supplementation
  levels of follicle-stimulating hormone (FSH): normalized
Skin fibroblasts; Control 1 fibroblasts
  % of cells with glycogen aggregates: 2%
Skin fibroblasts; Control 2 fibroblasts
  % of cells with glycogen aggregates: 4%
Skin fibroblasts; PGM1-6 patient fibroblasts
  % of cells with glycogen aggregates: <1%
Skin fibroblasts; PGM1-7 patient fibroblasts
  % of cells with glycogen aggregates: <1%
[2]
  glycosylation of Glyc-ER-GFP: substantially enhanced
[3]
  plasma concentration of galactose, maximum: 0.7 mM
  time after which galactose decreased to baseline levels: 2 h
  time of maximum galactose concentration: 50 min

## OC[C@H]1O[C@@H](O[C@H]2[C@H](O)[C@@H](O)C(O)O[C@@H]2CO)[C@H](O)[C@@H](O)[C@H]1O (stereo partly shown) [lactose]
transferrin
  transferrin glycosylation by mass spectrometry: improved substantially
